This passage reports IC50 results from patent US20220096450A1, “Compounds and Methods for Treating or Preventing Heart Failure” (DREXEL UNIVERSITY, priority 2019, published 2022).

pIC50: −log10 of the molar value.

SQOR, sequence (Q9Y6N5 whole entry): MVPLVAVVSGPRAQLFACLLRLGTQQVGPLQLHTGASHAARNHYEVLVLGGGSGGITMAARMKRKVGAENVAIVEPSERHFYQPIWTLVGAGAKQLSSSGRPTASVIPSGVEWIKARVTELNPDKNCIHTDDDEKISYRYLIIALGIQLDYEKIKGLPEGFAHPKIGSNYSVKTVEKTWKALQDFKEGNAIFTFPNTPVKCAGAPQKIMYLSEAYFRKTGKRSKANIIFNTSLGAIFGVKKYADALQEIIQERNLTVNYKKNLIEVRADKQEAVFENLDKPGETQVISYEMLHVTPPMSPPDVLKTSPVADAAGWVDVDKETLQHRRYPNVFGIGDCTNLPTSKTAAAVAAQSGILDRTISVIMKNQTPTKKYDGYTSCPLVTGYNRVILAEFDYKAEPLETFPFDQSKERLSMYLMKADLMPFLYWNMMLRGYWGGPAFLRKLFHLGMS

The first assay has as its target SQOR (Homo sapiens, UniProt Q9Y6N5). The experiment in a line: DCIP endpoint assay of SQOR activity. Type of assay: biochemical. As to conditions: Table 1, SAR of Set A/A′ and Set B; read-out: IC50. As for the experimental part:
The assay is based on the ability of reduced CoQ1, which is produced in the SQOR reaction, to nonenzymically reduce 2,6-dichloroindiphenol (DCIP) (Δεox-red=20 mM−1 cm−1 at 600 nm). Reaction mixtures containing SQOR, substrates (H2S, sulfite, CoQ1) and various concentrations of an inhibitor are incubated in 96-well plates for 60 s. The reactions are quenched by addition of formaldehyde and N-ethylmaleimide to denature SQOR and consume unreacted H2S, respectively, and are then incubated for 10 min prior to addition of DCIP. The absorbance at 600 nm is read 30 s after DCIP addition by using a BioTek Synergy 2 plate reader.
On to `N#Cc1c(-c2ccccc2)cc(-c2ccc(O)cc2)nc1N` [Compound 17, 2-amino-6-(4-hydroxyphenyl)-4-phenylnicotinonitrile], for which the pIC50 was 4.92. With `COc1nc2c(c(-c3ccc(C(F)(F)F)cc3)c1C#N)Cc1ccccc1-2` [Compound 8, 2-methoxy-4-(4-(trifluoromethyl)phenyl)-5H-indeno[1,2-b]pyridine-3-carbonitrile], the pIC50 was 5.96. The same measure, in the same setting: the value for `CCOC(=O)COc1nc(-c2ccccc2)cc(-c2ccccc2)c1C#N` [Compound 11, ethyl 2-((3-cyano-4,6-diphenylpyridin-2-yl)oxy)acetate] was 7.52; that for `COc1nc2c(c(-c3ccccc3Cl)c1C#N)Cc1ccccc1-2` [Compound 6, 4-(2-chlorophenyl)-2-methoxy-5H-indeno[1,2-b]pyridine-3-carbonitrile] was 6.47; that for `Cc1ccc(-c2cc(-c3ccc4c(c3)OCO4)c(C#N)c(N)n2)cc1C` [Compound 18, 2-amino-4-(benzo[d][1,3]dioxol-5-yl)-6-(3,4-dimethylphenyl)nicotinonitrile] was 4.85. Consider `O=[N+]([O-])c1cc(Cl)c(-n2cccc2)cc1N1CCCC1` [Compound 20, 1-(2-chloro-4-nitro-5-(pyrrolidin-1-yl)phenyl)-1H-pyrrole], for which the pIC50 is 6.34.

For the compound `CCOc1nc2c(c(-c3ccc(OC)cc3)c1C#N)Cc1ccccc1-2` [Compound 5, 2-ethoxy-4-(4-methoxyphenyl)-5H-indeno[1,2-b]pyridine-3-carbonitrile], the pIC50 was 6.59. Take `COc1nc2c(c(-c3cc(Cl)ccc3F)c1C#N)Cc1ccccc1-2` [Compound 9, 4-(5-chloro-2-fluorophenyl)-2-methoxy-5H-indeno[1,2-b]pyridine-3-carbonitrile]: the pIC50 is 5.46. For `O=[N+]([O-])c1cc(Cl)c(-n2cccc2)cc1N1CCCCC1` [Compound 2, 1-(4-chloro-2-nitro-5-(1H-pyrrol-1-yl)phenyl)piperidine], the pIC50 is 7.60. Same read-out and setting: for `CCOc1nc(-c2ccccc2)cc(-c2ccccc2)c1C#N` [Compound 13, 2-ethoxy-4,6-diphenylnicotinonitrile] the value was 7.72; for `COc1nc2c(c(-c3ccccc3)c1C#N)Cc1ccccc1-2` [Compound 4, 2-methoxy-4-phenyl-5H-indeno[1,2-b]pyridine-3-carbonitrile], 7.68; for `COc1cccc(-c2c(C#N)c(OC)nc3c2Cc2ccccc2-3)c1` [Compound 10, 2-methoxy-4-(3-methoxyphenyl)-5H-indeno[1,2-b]pyridine-3-carbonitrile], 5.21. As for `Cc1ccc(-c2cc(-c3ccccc3)c(C#N)c(N)n2)cc1` [Compound 16, 2-amino-4-phenyl-6-(p-tolyl)nicotinonitrile], the pIC50 was 4.96.

On to `COc1nc2c(c(-c3ccc(SC)cc3)c1C#N)Cc1ccccc1-2` [Compound 7, 2-methoxy-4-(4-(methylthio)phenyl)-5H-indeno[1,2-b]pyridine-3-carbonitrile], for which the pIC50 is 6.06.

The same assay, now with this note: Table 2, SAR of Set C; read-out: IC50.
As for `Cc1cc([N+](=O)[O-])c(S(=O)(=O)c2ccccc2)cc1C(=O)c1ccccc1` [Compound 33, (2-methyl-4-nitro-5-(phenylsulfonyl)phenyl)(phenyl)methanone], the pIC50 was 6.82. For `COc1ccc(Sc2ccc(C)cc2)c([N+](=O)[O-])c1` [Compound 34, (4-methoxy-2-nitrophenyl)(p-tolyl)sulfane], the negative logarithm of the IC50 (pIC50) is 5.31. Same read-out and setting: the value for `Cc1cc([N+](=O)[O-])c(Sc2ccc(Cl)cc2)cc1C1SCCS1` [Compound 32, 2-(5-((4-chlorophenyl)thio)-2-methyl-4-nitrophenyl)-1,3-dithiolane] was 7.62.

Still in this assay, the particulars now being: Table 3; read-out: IC50.
With `COc1nc(-c2ccccc2)cc(-c2cccc([N+](=O)[O-])c2)c1C#N` [2-Methoxy-4-(3-nitrophenyl)-6-phenylpyridine-3-carbonitrile], the pIC50 was 4.32.

Take `Cc1cccnc1-c1cc(-c2ccc(F)cc2)c(C#N)c(OCCN2CCOCC2)n1` [2-(2-Morpholinoethoxy)-4-(4-fluorophenyl)-6-(3-methylpyridin-2-yl)pyridine-3-carbonitrile]: the negative logarithm of the IC50 (pIC50) is 6.57.

`Cc1cccnc1-c1cc(-c2ccc(F)cc2)c(C#N)c(OCCN2CCN(C(=O)OC(C)(C)C)CC2)n1` [tert-Butyl 4-(2-(3-cyano-4-(4-fluorophenyl)-6-(3-methylpyridin-2-yl)pyridin-2-yloxy)ethyl)piperazine-1-carboxylate]: the pIC50 was 7.37.

Take `CN(C)CCCOc1nc(-c2ccccn2)cc(-c2ccc(F)cc2)c1C#N` [2-(3-(Dimethylamino)propoxy)-4-(4-fluorophenyl)-6-(pyridin-2-yl)pyridine-3-carbonitrile]: the pIC50 is 5.66. For `Cc1cccnc1-c1cc(-c2ccc(F)cc2)c(C#N)c(=O)n1CCN1CCOCC1` [4-(4-fluorophenyl)-1,2-dihydro-6-(3-methylpyridin-2-yl)-1-(2-morpholinoethyl)-2-oxopyridine-3-carbonitrile], the pIC50 was 4.85. Consider `Cc1cccnc1-c1cc(-c2ccc(F)cc2)c(C#N)c(OCc2cccnc2)n1` [2-((Pyridin-3-yl)methoxy)-4-(4-fluorophenyl)-6-(3-methylpyridin-2-yl)pyridine-3-carbonitrile], for which the pIC50 is 7.40. As for `COc1ccc(-c2cc(-c3ncccc3C)nc(OC)c2C#N)cc1` [2-Methoxy-4-(4-methoxyphenyl)-6-(3-methylpyridin-2-yl)pyridine-3-carbonitrile], the pIC50 is 6.17.

For `COC(=O)COCCOc1nc(-c2ncccc2C)cc(-c2ccc(F)cc2)c1C#N` [Methyl 2-(3-cyano-4-(4-fluorophenyl)-6-(3-methylpyridin-2-yl)pyridin-2-yloxy) 2-(2-methoxyethoxy) acetate], the pIC50 is 7.02.

In the case of `N#CCOc1nc(-c2ccccn2)cc(-c2ccc(F)cc2)c1C#N` [2-(Cyanomethoxy)-4-(4-fluorophenyl)-6-(pyridin-2-yl)pyridine-3-carbonitrile], the pIC50 was 7.60. As to `COc1nc(-c2ccccc2)cc(-c2cccc(N)c2)c1C#N` [4-(3-Aminophenyl)-2-methoxy-6-phenylpyridine-3-carbonitrile], the pIC50 was 5.82. In the case of `COc1nc(-c2ccccc2[N+](=O)[O-])cc(-c2ccc(F)cc2)c1C#N` [4-(4-Fluorophenyl)-2-methoxy-6-(2-nitrophenyl)pyridine-3-carbonitrile], the pIC50 is 8.15. For `N#Cc1c(-c2ccc(F)cc2)cc(-c2ccccn2)nc1OC[C@@H]1CCC(=O)N1` [2-((S)-5-(Methoxy)pyrrolidin-2-one)-4-(4-fluorophenyl)-6-(pyridin-2-yl)pyridine-3-carbonitrile], the pIC50 is 4.41.

For the compound `Cc1cccnc1-c1cc(-c2ccc(F)cc2)c(C#N)c(OCCN2CCN(C(=O)OC(C)C)CC2)n1` [Isopropyl 4-(2-(3-cyano-4-(4-fluorophenyl)-6-(3-methylpyridin-2-yl)pyridin-2-yloxy)ethyl)piperazine-1-carboxylate], the pIC50 is 6.92.

For `Cc1cccnc1-c1cc(-c2ccc(F)cc2)c(C#N)c(OCCCN(C)C)n1` [2-(3-(Dimethylamino)propoxy)-4-(4-fluorophenyl)-6-(3-methylpyridin-2-yl)pyridine-3-carbonitrile], the pIC50 is 5.57.

Consider `COc1nc(-c2ccccc2)cc(-c2ccc(N)cc2)c1C#N` [4-(4-Aminophenyl)-2-methoxy-6-phenylpyridine-3-carbonitrile], for which the pIC50 is 7.04. Turning to `COc1nc(-c2ccccc2)cc(-c2ccccc2)c1C` [2-Methoxy-3-methyl-4,6-diphenylpyridine], the pIC50 was 6.36.

`N#Cc1c(-c2ccc(F)cc2)cc(-c2ccccn2)nc1OC[C@H]1CCC(=O)N1` [2-((R)-5-(Methoxy)pyrrolidin-2-one)-4-(4-fluorophenyl)-6-(pyridin-2-yl)pyridine-3-carbonitrile]: the pIC50 is 5.57. Consider `Cc1cccnc1-c1cc(-c2ccc(F)cc2)c(C#N)c(=O)n1Cc1cccnc1` [4-(4-fluorophenyl)-1,2-dihydro-6-(3-methylpyridin-2-yl)-2-oxo-1-((pyridin-3-yl)methyl)pyridine-3-carbonitrile], for which the pIC50 is 5.00.

`CC(=O)NCCOc1nc(-c2ccccn2)cc(-c2ccc(F)cc2)c1C#N` [N-(2-(3-Cyano-4-(4-fluorophenyl)-6-(pyridin-2-yl)pyridin-2-yloxy)ethyl)acetamide]: the pIC50 was 5.72. The same measure, in the same setting: the value for `COc1nc(-c2ccccc2N)cc(-c2ccc(F)cc2)c1C#N` [6-(2-Aminophenyl)-4-(4-fluorophenyl)-2-methoxypyridine-3-carbonitrile] was 6.64; that for `Cc1cccnc1-c1cc(-c2ccc(F)cc2)c(C#N)c(OCc2ccncc2)n1` [2-((Pyridin-4-yl)methoxy)-4-(4-fluorophenyl)-6-(3-methylpyridin-2-yl)pyridine-3-carbonitrile] was 6.92. Turning to `COc1nc(-c2ccccc2)cc(-c2ccc(O)cc2)c1C#N` [4-(4-Hydroxyphenyl)-2-methoxy-6-phenylpyridine-3-carbonitrile], the pIC50 was 6.32. `CCOC(=O)N1CCN(CCOc2nc(-c3ncccc3C)cc(-c3ccc(F)cc3)c2C#N)CC1` [Ethyl 4-(2-(3-cyano-4-(4-fluorophenyl)-6-(3-methylpyridin-2-yl)pyridin-2-yloxy)ethyl)piperazine-1-carboxylate]: the pIC50 is 6.64. With `COc1nc(-c2ccccn2)cc(-c2ccco2)c1C#N` [4-(Furan-2-yl)-2-methoxy-6-(pyridin-2-yl)pyridine-3-carbonitrile], the negative logarithm of the IC50 (pIC50) was 6.17.

The assay is the same for the next values; noted with them: read-out: IC50 against SQOR.
On to `CCOc1nc2c(c(-c3ccc(F)cc3)c1C#N)Cc1ccccc1-2` [Compound 1, 2-ethoxy-4-(4-fluorophenyl)-5H-indeno[1,2-b]pyridine-3-carbonitrile], for which the pIC50 is 8.03.
